ChEMBL document CHEMBL1201862, “PubChem BioAssay data set” (2004)
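Method: 48-hour compound exposure of cells in 96-well plates, five concentrations, linear interpolation of endpoints. Abbreviation: GI50, concentration required for 50% inhibition of growth.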 Calls of active or inactive are those of the source. Cut-off read from the data, not from the text of the source: active = GI50 up to about 1.1 µM and inactive = higher.

Columns and labels:
Test in all cases: growth of human tumour cells (NCI), 48 h
HCC 2998 = tested on: HCC 2998
MDA-MB-231 = tested on: MDA-MB-231
T47D = tested on: T47D
HT-29 = tested on: HT-29
786-0 = tested on: 786-0
EKVX = tested on: EKVX
SF-295 = tested on: SF-295
UACC-257 = tested on: UACC-257
BT-549 = tested on: BT-549
HCT-116 = tested on: HCT-116
NCI-H460 = tested on: NCI-H460
IGROV-1 = tested on: IGROV-1
SK-MEL-28 = tested on: SK-MEL-28
OVCAR-5 = tested on: OVCAR-5
SK-MEL-5 = tested on: SK-MEL-5
A498 = tested on: A498
RXF 393 = tested on: RXF 393
SK-MEL-2 = tested on: SK-MEL-2
MOLT-4 = tested on: MOLT-4

Measured: GI50

Cn1c(=O)c2[nH]c(CCC(=O)O)nc2n(C)c1=O
inactive: HCC 2998 > 100 µM | MDA-MB-231 > 100 µM | T47D > 100 µM | HT-29 > 100 µM | 786-0 > 100 µM | EKVX > 100 µM | SF-295 > 100 µM | UACC-257 > 100 µM | BT-549 > 100 µM | HCT-116 > 100 µM | NCI-H460 > 100 µM | IGROV-1 > 100 µM | SK-MEL-28 > 100 µM | OVCAR-5 > 100 µM | SK-MEL-5 > 100 µM | A498 > 100 µM | RXF 393 > 100 µM | SK-MEL-2 > 100 µM

c1cncc(-c2cc(-c3cc(-c4cccnc4)[nH]n3)n[nH]2)c1
inactive: HCC 2998 > 100 µM | MDA-MB-231 > 100 µM | T47D > 100 µM | MOLT-4 > 100 µM | HT-29 > 100 µM | 786-0 > 100 µM | EKVX > 100 µM | SF-295 > 100 µM | UACC-257 > 100 µM | BT-549 > 100 µM | HCT-116 > 100 µM | NCI-H460 > 100 µM | IGROV-1 > 100 µM | SK-MEL-28 > 100 µM | OVCAR-5 > 100 µM | SK-MEL-5 > 100 µM | A498 > 100 µM | RXF 393 > 100 µM | SK-MEL-2 > 100 µM

CN1c2ccc(Cl)cc2C(=O)NC1c1ccc([N+](=O)[O-])s1 (stereo not drawn)
inactive: HCC 2998 16.1 µM | MDA-MB-231 16.2 µM | T47D 15 µM | MOLT-4 10.4 µM | HT-29 18.9 µM | 786-0 16.6 µM | EKVX 21.5 µM | SF-295 21.6 µM | UACC-257 15.1 µM | BT-549 14.1 µM | HCT-116 15.2 µM | NCI-H460 16.1 µM | IGROV-1 15.4 µM | SK-MEL-28 18.7 µM | OVCAR-5 20.2 µM | SK-MEL-5 16.1 µM | A498 14.8 µM | RXF 393 11.6 µM | SK-MEL-2 16.4 µM

O=C(O)c1ccccc1NC(c1ccccc1)c1ccc2cccnc2c1O (stereo not drawn)
inactive: HCC 2998 12.3 µM | MDA-MB-231 12.1 µM | T47D 11.3 µM | MOLT-4 4.06 µM | HT-29 4.4 µM | 786-0 4.39 µM | EKVX 6.18 µM | SF-295 4.37 µM | UACC-257 14 µM | BT-549 11 µM | HCT-116 3.65 µM | NCI-H460 4.03 µM | IGROV-1 20.4 µM | SK-MEL-28 6.41 µM | OVCAR-5 8.97 µM | SK-MEL-5 8.39 µM | A498 24.6 µM | RXF 393 10 µM | SK-MEL-2 25.2 µM

CC(=O)NCCCCN(CCCNC(C)=O)C(=O)CNS(=O)(=O)c1cccc2c(N(C)C)cccc12
inactive: HCC 2998 > 100 µM | MDA-MB-231 > 100 µM | T47D > 100 µM | MOLT-4 > 100 µM | HT-29 > 100 µM | 786-0 > 100 µM | EKVX > 100 µM | SF-295 > 100 µM | UACC-257 > 100 µM | BT-549 > 100 µM | HCT-116 > 100 µM | NCI-H460 > 100 µM | IGROV-1 > 100 µM | SK-MEL-28 > 100 µM | OVCAR-5 > 100 µM | SK-MEL-5 > 100 µM | A498 > 100 µM | RXF 393 > 100 µM | SK-MEL-2 > 100 µM

BrC1=C(Br)C2(SCCS2)[C@H]2C[C@@H]1c1ccccc12
inactive: HCC 2998 21.3 µM | MDA-MB-231 60.8 µM | T47D 24.6 µM | MOLT-4 13.9 µM | HT-29 10.2 µM | 786-0 58.3 µM | EKVX 36.9 µM | SF-295 > 100 µM | UACC-257 52.6 µM | BT-549 38.4 µM | HCT-116 13.1 µM | NCI-H460 33.5 µM | IGROV-1 55 µM | SK-MEL-28 97.9 µM | OVCAR-5 > 100 µM | SK-MEL-5 9.38 µM | A498 > 100 µM | RXF 393 > 31.2 µM | SK-MEL-2 41.2 µM

Cc1ccc(-c2n[nH]c(=O)[nH]2)cc1
inactive: HCC 2998 > 100 µM | MDA-MB-231 > 100 µM | T47D > 46.5 µM | MOLT-4 > 100 µM | HT-29 > 100 µM | 786-0 > 100 µM | EKVX 45.8 µM | SF-295 > 49 µM | UACC-257 > 66.1 µM | BT-549 > 100 µM | HCT-116 > 100 µM | NCI-H460 > 100 µM | IGROV-1 > 100 µM | SK-MEL-28 > 100 µM | OVCAR-5 > 100 µM | SK-MEL-5 > 100 µM | A498 > 100 µM | RXF 393 > 100 µM | SK-MEL-2 > 100 µM

CCCCCCCCCCCCCCCCCCNC(=S)N/C=C1\C(=O)Nc2ccccc2C1=O
inactive: HCC 2998 16.3 µM | MDA-MB-231 14.9 µM | T47D 24.7 µM | MOLT-4 12.7 µM | HT-29 16.9 µM | 786-0 15.6 µM | EKVX 13.7 µM | SF-295 21.4 µM | UACC-257 17.1 µM | BT-549 18.9 µM | HCT-116 15.7 µM | NCI-H460 16.1 µM | IGROV-1 5.83 µM | SK-MEL-28 16.5 µM | OVCAR-5 15.4 µM | SK-MEL-5 24.2 µM | A498 21.4 µM | RXF 393 22.2 µM | SK-MEL-2 21.4 µM

Cc1cc2c(cc1Cl)SC(c1ccccc1O)NS2(=O)=O (stereo not drawn)
inactive: HCC 2998 31 µM | MDA-MB-231 32.4 µM | T47D 6.95 µM | MOLT-4 12.5 µM | HT-29 45.4 µM | 786-0 34.7 µM | EKVX 56.9 µM | SF-295 > 100 µM | UACC-257 53 µM | BT-549 47.2 µM | HCT-116 27.5 µM | NCI-H460 92 µM | IGROV-1 42.4 µM | SK-MEL-28 49.4 µM | OVCAR-5 40.1 µM | SK-MEL-5 42.7 µM | A498 > 100 µM | RXF 393 53.5 µM | SK-MEL-2 87.3 µM

O=C(NCCCl)N(O)C(=O)Nc1ccccc1
inactive: HCC 2998 > 100 µM | MDA-MB-231 67.8 µM | T47D > 100 µM | MOLT-4 > 100 µM | HT-29 > 100 µM | 786-0 > 100 µM | EKVX > 100 µM | SF-295 > 100 µM | UACC-257 > 100 µM | BT-549 > 100 µM | HCT-116 > 100 µM | NCI-H460 > 100 µM | IGROV-1 > 100 µM | OVCAR-5 > 100 µM | SK-MEL-5 98.2 µM | A498 > 100 µM | RXF 393 > 100 µM | SK-MEL-2 > 100 µM

O=C(NNc1cn[nH]c(=O)n1)c1cccc2nc3ccccc3nc12
inactive: HCC 2998 25.1 µM | MDA-MB-231 26.5 µM | T47D > 100 µM | MOLT-4 11 µM | HT-29 > 100 µM | 786-0 45.2 µM | EKVX 35.8 µM | SF-295 30.2 µM | UACC-257 > 100 µM | BT-549 > 100 µM | HCT-116 > 100 µM | NCI-H460 > 100 µM | IGROV-1 38.2 µM | SK-MEL-28 > 100 µM | OVCAR-5 > 100 µM | SK-MEL-5 > 100 µM | A498 > 100 µM | RXF 393 21.7 µM | SK-MEL-2 34.9 µM

COc1ccccc1NC(=O)C(=O)Cc1cnc2ccccc2n1
inactive: HCC 2998 > 100 µM | MDA-MB-231 > 100 µM | T47D > 100 µM | MOLT-4 > 100 µM | HT-29 > 100 µM | 786-0 > 100 µM | SF-295 > 100 µM | UACC-257 > 100 µM | BT-549 > 100 µM | HCT-116 > 100 µM | NCI-H460 > 100 µM | SK-MEL-28 > 100 µM | OVCAR-5 > 100 µM | SK-MEL-5 > 100 µM | A498 > 100 µM | RXF 393 > 100 µM | SK-MEL-2 > 100 µM

COc1cc(C(=O)N(C)N(C)C)cc(OC)c1OC
inactive: HCC 2998 > 10 µM | MDA-MB-231 > 10 µM | T47D > 10 µM | MOLT-4 > 10 µM | HT-29 > 10 µM | 786-0 > 10 µM | EKVX > 10 µM | SF-295 > 10 µM | UACC-257 > 10 µM | BT-549 > 10 µM | HCT-116 > 10 µM | NCI-H460 > 10 µM | IGROV-1 > 10 µM | SK-MEL-28 > 10 µM | OVCAR-5 > 10 µM | SK-MEL-5 > 10 µM | A498 > 10 µM | RXF 393 > 10 µM | SK-MEL-2 > 10 µM

Cc1cc(Br)cc(C)c1NC(=O)C(=O)Nn1c(S)nc2ccccc2c1=O
inactive: HCC 2998 > 100 µM | MDA-MB-231 > 100 µM | T47D > 100 µM | MOLT-4 > 100 µM | HT-29 > 100 µM | 786-0 > 100 µM | EKVX > 100 µM | SF-295 > 100 µM | UACC-257 > 100 µM | BT-549 > 100 µM | HCT-116 > 100 µM | NCI-H460 > 100 µM | IGROV-1 > 100 µM | SK-MEL-28 > 100 µM | OVCAR-5 > 100 µM | SK-MEL-5 > 100 µM | A498 > 100 µM | RXF 393 > 100 µM | SK-MEL-2 > 100 µM

ClC1(Cl)C(c2ccccc2)C1c1ccccc1 (stereo not drawn)
inactive: HCC 2998 11.1 µM | MDA-MB-231 54.2 µM | T47D 34.6 µM | MOLT-4 26.7 µM | 786-0 28.5 µM | EKVX 18.3 µM | SF-295 17.8 µM | UACC-257 30.7 µM | BT-549 33.4 µM | HCT-116 23.9 µM | NCI-H460 13.2 µM | SK-MEL-28 41.7 µM | OVCAR-5 43.6 µM | A498 38.8 µM | RXF 393 14.4 µM | SK-MEL-2 13.8 µM
